In publication PMC5429603, “Discovery and characterization of verinurad, a potent and specific inhibitor of URAT1 for the treatment of hyperuricemia and gout” (Scientific Reports, 2017):

What was measured:
[1] = target: T1, human URAT1 h-M22V (Homo sapiens, UniProt Q96S37, M22V); assay: URAT1 activity assay, h-M22V; type: cell-based; details: TM1 point mutant, read-out: Verinurad affinity (IC50)
T1 construct: expressed in transfected cells; host or cells: HEK-293T
Description: (§1) Human URAT1 (GenBank BC053348.1, Homo sapiens SLC22A12), rat URAT1 (NCBI NM_001034943.1, Rattus norvegicus Slc22a12) and human OAT4 (NCBI NM_018484.2, Homo sapiens SLC22A11) genes were purchased from Origene Technologies, Inc. and subcloned into pCMV6/neo using NotI. Where indicated, controls transfections used pCMV6/neo. Mutants were produced by site-directed mutagenesis using the QuikChange Lightning Multi Site-Directed Mutagenesis Kit (Agilent Technologies). […] Mutagenic primer sequences are provided in ref. [15] and mutagenic primer sequences for previously unreported mutants shown in Supplementary Table 1. All constructs used in this study were untagged. Human OAT1 was purchased from Fisher Scientific (catalog # MHS1010–7508183 in pSPORT6, NCBI NM_153276.2, Homo sapiens SLC22A6).
(§2) HEK-293T cells were maintained in DMEM/high glucose/L-glutamine/HEPES supplemented with 1 mM sodium pyruvate (Life Technologies) and 10% FBS (PAA Laboratories) at 37 °C in 5% CO2. […]
(§3) URAT1 and OAT4 activity assays were performed in assay buffer consisting of 25 mM MES pH 5.5 (from a 1 M MES solution [Sigma] adjusted to pH 5.5 with sodium hydroxide), 125 mM sodium gluconate, 4.8 mM potassium gluconate, 1.2 mM monobasic potassium phosphate, 1.2 mM magnesium sulfate, 1.3 mM calcium gluconate and 5.6 mM glucose. […] Each treatment was measured in triplicate.

[2] = target: T2, human OAT4 (Homo sapiens, UniProt Q9NSA0); assay: OAT4 activity assay (carboxyfluorescein transport); type: cell-based
T2 construct: host or cells: HEK-293T
T2 sequence (Q9NSA0 whole entry): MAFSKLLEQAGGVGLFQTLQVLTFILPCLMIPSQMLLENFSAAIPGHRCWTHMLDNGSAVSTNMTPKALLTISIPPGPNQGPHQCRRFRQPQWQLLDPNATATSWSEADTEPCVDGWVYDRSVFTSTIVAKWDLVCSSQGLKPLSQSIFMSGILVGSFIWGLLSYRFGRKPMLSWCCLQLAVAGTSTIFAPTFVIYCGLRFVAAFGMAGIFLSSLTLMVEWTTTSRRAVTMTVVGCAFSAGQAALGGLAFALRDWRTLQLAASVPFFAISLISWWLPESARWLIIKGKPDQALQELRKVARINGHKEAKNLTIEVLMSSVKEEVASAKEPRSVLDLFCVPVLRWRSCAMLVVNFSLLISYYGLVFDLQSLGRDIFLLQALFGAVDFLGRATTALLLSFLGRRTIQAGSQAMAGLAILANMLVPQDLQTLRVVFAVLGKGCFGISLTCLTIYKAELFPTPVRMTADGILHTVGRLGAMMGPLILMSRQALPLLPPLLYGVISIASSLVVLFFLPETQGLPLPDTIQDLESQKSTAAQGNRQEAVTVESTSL
Protocol: (§4) HEK-293T cells were maintained in DMEM/high glucose/L-glutamine/HEPES supplemented with 1 mM sodium pyruvate (Life Technologies) and 10% FBS (PAA Laboratories) at 37 °C in 5% CO2. To express URAT1, OAT4 or OAT1, plasmids were reverse transfected into HEK-293T cells. DNA (10 µg) was mixed with 30 µl of DreamFect Gold (Boca Scientific) in 2 ml OptiMem (Life Technologies). After 20 minutes, 18 ml of media containing 2 × 10^7 cells in suspension was added and mixed, and 200 µl per well were plated onto white clear-bottomed poly-D-lysine coated 96-well plates (BD Biosciences). The cells were assayed the following day.
as §3, with “glucose. URAT1 inhibitors were serially diluted into assay buffer and added to the cells for 5 minutes prior to addition of substrate. URAT1-expressing cells were incubated with 100 µM ^14C-uric acid for 10 minutes and OAT4-expressing cells were incubated with 20 µM carboxyfluorescein (Life Technologies, Inc.) for 5 minutes.” for “glucose.”

[3] = target: T3, human URAT1 h-F241Y (Homo sapiens, UniProt Q96S37, F241Y); assay: URAT1 activity assay, h-F241Y; type: cell-based
T3 construct: expressed in transfected cells; host or cells: HEK-293T
T3 sequence (Q96S37 1-553 F241Y): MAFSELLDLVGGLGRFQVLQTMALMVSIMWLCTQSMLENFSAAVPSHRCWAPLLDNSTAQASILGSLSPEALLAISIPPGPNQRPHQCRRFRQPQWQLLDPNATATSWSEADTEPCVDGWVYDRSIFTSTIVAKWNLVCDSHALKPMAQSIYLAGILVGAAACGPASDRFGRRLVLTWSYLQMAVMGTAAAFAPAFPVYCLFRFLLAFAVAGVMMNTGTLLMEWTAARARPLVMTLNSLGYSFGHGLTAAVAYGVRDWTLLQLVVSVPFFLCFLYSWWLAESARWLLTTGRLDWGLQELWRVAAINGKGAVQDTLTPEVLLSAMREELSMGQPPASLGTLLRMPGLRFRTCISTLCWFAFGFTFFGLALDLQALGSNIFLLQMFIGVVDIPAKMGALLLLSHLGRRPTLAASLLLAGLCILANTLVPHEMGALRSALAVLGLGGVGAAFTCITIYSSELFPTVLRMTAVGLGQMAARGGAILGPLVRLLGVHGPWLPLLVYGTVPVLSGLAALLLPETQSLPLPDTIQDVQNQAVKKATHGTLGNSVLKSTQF
Description: as §1, §4
(§5) URAT1 and OAT4 activity assays were performed in assay buffer consisting of 25 mM MES pH 5.5 (from a 1 M MES solution [Sigma] adjusted to pH 5.5 with sodium hydroxide), 125 mM sodium gluconate, 4.8 mM potassium gluconate, 1.2 mM monobasic potassium phosphate, 1.2 mM magnesium sulfate, 1.3 mM calcium gluconate and 5.6 mM glucose. URAT1 inhibitors were serially diluted into assay buffer and added to the cells for 5 minutes prior to addition of substrate. URAT1-expressing cells were incubated with 100 µM ^14C-uric acid for 10 minutes and OAT4-expressing cells were incubated with 20 µM carboxyfluorescein (Life Technologies, Inc.) for 5 minutes. Cells were then washed three times in 25 mM MES pH 5.5/125 mM sodium gluconate, and solubilized in Ultima Gold (Perkin Elmer) prior to liquid scintillation counting. Each treatment was measured in triplicate.

[4] = target: T4, human URAT1 h-T21A (Homo sapiens, UniProt Q96S37, T21A); assay: URAT1 activity assay, h-T21A; type: cell-based; details: TM1 point mutant, read-out: Verinurad affinity (IC50)
T4 construct: expressed in transfected cells; host or cells: HEK-293T
T4 sequence (Q96S37 whole entry T21A): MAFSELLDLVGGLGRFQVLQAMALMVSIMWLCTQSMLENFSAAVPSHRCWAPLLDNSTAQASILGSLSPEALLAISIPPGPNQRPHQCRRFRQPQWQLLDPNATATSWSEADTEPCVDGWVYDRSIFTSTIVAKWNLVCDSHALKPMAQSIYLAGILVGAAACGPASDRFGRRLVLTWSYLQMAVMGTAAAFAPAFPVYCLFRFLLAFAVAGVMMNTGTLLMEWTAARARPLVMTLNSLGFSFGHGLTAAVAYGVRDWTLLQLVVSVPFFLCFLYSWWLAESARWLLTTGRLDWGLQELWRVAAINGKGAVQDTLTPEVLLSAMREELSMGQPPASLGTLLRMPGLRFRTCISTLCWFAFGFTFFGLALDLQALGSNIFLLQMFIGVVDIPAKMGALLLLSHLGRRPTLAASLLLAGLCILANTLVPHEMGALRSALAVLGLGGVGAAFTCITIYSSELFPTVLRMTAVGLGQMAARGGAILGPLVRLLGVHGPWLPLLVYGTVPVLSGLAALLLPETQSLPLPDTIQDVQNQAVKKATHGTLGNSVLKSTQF
Description: as §1, §2, §3

[5] = target: T5, rat URAT1 (Rattus norvegicus, UniProt Q3ZAV1); assay: URAT1 activity assay, rat URAT1; type: cell-based; details: rat URAT1 wild type; 14C-uric acid; read-out: IC50, inhibition of transport activity
T5 construct: host or cells: HEK-293T
T5 sequence (Q3ZAV1 1-553): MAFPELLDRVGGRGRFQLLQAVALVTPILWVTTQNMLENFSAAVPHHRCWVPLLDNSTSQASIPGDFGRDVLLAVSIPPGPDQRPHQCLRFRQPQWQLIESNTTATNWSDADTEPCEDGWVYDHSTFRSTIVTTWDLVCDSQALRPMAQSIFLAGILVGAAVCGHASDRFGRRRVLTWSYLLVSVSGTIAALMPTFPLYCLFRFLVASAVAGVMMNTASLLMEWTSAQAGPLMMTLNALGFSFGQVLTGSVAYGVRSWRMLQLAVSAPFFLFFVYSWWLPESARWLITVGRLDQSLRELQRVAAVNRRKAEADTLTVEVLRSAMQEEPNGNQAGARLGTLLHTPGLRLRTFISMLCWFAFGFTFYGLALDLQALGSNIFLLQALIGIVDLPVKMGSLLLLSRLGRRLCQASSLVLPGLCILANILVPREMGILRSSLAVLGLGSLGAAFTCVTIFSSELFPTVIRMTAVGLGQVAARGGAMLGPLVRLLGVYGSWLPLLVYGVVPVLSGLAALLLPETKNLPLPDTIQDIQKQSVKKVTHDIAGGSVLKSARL
Protocol: as §4
as §5, with “Cells were then washed three times in 25 mM MES pH 5.5/125 mM sodium gluconate, and solubilized in Ultima Gold (Perkin Elmer) prior to liquid scintillation counting.” left out

[6] = target: T6, human URAT1-F449Y (Homo sapiens, UniProt Q96S37, F449Y); assay: URAT1 binding assay with 3H-verinurad, h-F449Y membranes
T6 construct: expressed in transfected cells; host or cells: HEK-293T
T6 sequence (Q96S37 whole entry F449Y): as the sequence (Q96S37 whole entry T21A) above, with A21T, F449Y counted along it
Protocol: The plates were then subjected to scintillation counting. All samples were assayed in triplicate.

T1 sequence (Q96S37 whole entry M22V): as the sequence (Q96S37 whole entry T21A) above, with A21T, M22V counted along it

IC50 [1]: 0.029 ± 0.013 µM
IC50 ([2]; human OAT4 in HEK-293T, 20 µM carboxyfluorescein, read-out: IC50, inhibition of transport activity): 5.9 ± 1.4 µM
fold lower affinity compared to URAT1 ([2]; human OAT4 vs human URAT1): approximately 200 fold
fold reduced affinity compared to human URAT1 ([3]; h-F241Y): 5 fold
IC50 ([3]; h-F241Y binding site point mutant): 0.12 µM
IC50 [4]: 0.026 ± 0.012 µM
IC50 [5]: 41 ± 2.7 µM
IC50 ([6]; h-F449Y membranes, read-out: IC50, inhibition of 3H-verinurad binding to h-F449Y): 0.0059 µM
fold reduced potency at h-F449Y compared to wild type human URAT1, binding assay ([6]; h-F449Y vs human URAT1): the same affinity
SMILES: CC(C)(Sc1ccncc1-c1ccc(C#N)c2ccccc12)C(=O)O [Verinurad, 2-((3-(4-cyanonaphthalen-1-yl)pyrindin-4-yl)thio)-2-methylpropanoic acid]
